In PubChem BioAssay (NCI):
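Interpolation was linear, between the two tested concentrations surrounding the appropriate level; five concentrations were tested over 48 hours in 96-well plates. The concentration for full growth arrest is given as TGI.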

Assays:
Test in all cases: NCI anticancer screen, dose series, 48 h
OVCAR-4 ovarian = test system: OVCAR-4 ovarian
UACC-62 melanoma = test system: UACC-62 melanoma
SNB-19 CNS = test system: SNB-19 CNS
MALME-3M melanoma = test system: MALME-3M melanoma
SK-MEL-5 melanoma = test system: SK-MEL-5 melanoma
ACHN renal = test system: ACHN renal
SK-OV-3 ovarian = test system: SK-OV-3 ovarian
M14 melanoma = test system: M14 melanoma
CAKI-1 renal = test system: CAKI-1 renal
HL-60(TB) leukemia = test system: HL-60(TB) leukemia
SK-MEL-2 melanoma = test system: SK-MEL-2 melanoma
OVCAR-3 ovarian = test system: OVCAR-3 ovarian
HT29 colon = test system: HT29 colon
CCRF-CEM leukemia = test system: CCRF-CEM leukemia
SF-268 CNS = test system: SF-268 CNS
UACC-257 melanoma = test system: UACC-257 melanoma
U251 CNS = test system: U251 CNS
HOP-62 NSCLC = test system: HOP-62 NSCLC
SK-MEL-28 melanoma = test system: SK-MEL-28 melanoma
MDA-MB-435 = test system: MDA-MB-435

| SMILES | TGI (OVCAR-4 ovarian) [µM] | TGI (UACC-62 melanoma) [µM] | TGI (SNB-19 CNS) [µM] | TGI (MALME-3M melanoma) [µM] | TGI (SK-MEL-5 melanoma) [µM] | TGI (ACHN renal) [µM] | TGI (SK-OV-3 ovarian) [µM] | TGI (M14 melanoma) [µM] | TGI (CAKI-1 renal) [µM] | TGI (HL-60(TB) leukemia) [µM] | TGI (SK-MEL-2 melanoma) [µM] | TGI (OVCAR-3 ovarian) [µM] | TGI (HT29 colon) [µM] | TGI (CCRF-CEM leukemia) [µM] | TGI (SF-268 CNS) [µM] | TGI (UACC-257 melanoma) [µM] | TGI (U251 CNS) [µM] | TGI (HOP-62 NSCLC) [µM] | TGI (SK-MEL-28 melanoma) [µM] | TGI (MDA-MB-435) [µM] |
| --- | --- | --- | --- | --- | --- | --- | --- | --- | --- | --- | --- | --- | --- | --- | --- | --- | --- | --- | --- | --- |
| COc1cccc2c1[C@H]1OC(=O)NC1CCCCC2 (some centres not stated) | > 100 | > 100 | > 100 | > 100 | > 100 | > 100 | > 100 | > 100 | > 100 | > 100 | > 100 | > 100 | > 100 | > 100 | > 100 | > 100 | > 100 | > 100 | > 100 |  |
| CC1=C2CC(C)(C)CC(=O)C2(C)CCC1=O (configuration not stated) | > 100 | > 100 | > 100 | > 100 | > 100 | > 100 | > 100 | > 100 | > 100 | > 100 | > 100 |  | > 100 | > 100 | > 100 | > 100 | > 100 | > 100 | > 100 |  |
| CCCCCC(/C=C/[C@@H]1[C@@H](C(O)CCCCCC(=O)OC)C(=O)C[C@H]1O[Si](C)(C)C(C)(C)C)OCOCCOC (some centres not stated) | 40.9 | 27.5 | 29 | 30.6 | 30.5 | 28.6 | 34 | 37.1 | 32.2 |  | 32.4 | 28.1 | 18.8 | > 24.5 | 28.4 | 21.9 | 27.4 | 31.6 | 33.3 | 27.9 |
| FC(F)(F)c1cnc(N/N=C(/c2ccccc2)c2ccccn2)c(Cl)c1 | 24.8 | 23.1 | 50.9 |  | 21.2 | 13.2 | 17.9 | 15.7 | 19.6 |  | 24.4 | 11.7 | 18.8 | 17.6 | 21.8 | 11.5 | 30.4 | 20.3 | > 100 | > 100 |
| CCCCOCCOCCOC1=C(Cl)C(=O)c2c(O)ccc(O)c2C1=O | 1.38 | 3.47 | 3.2 |  | 1.53 | 3.11 | 14.8 | 0.317 | 0.388 |  |  | 2.08 | 1.25 | 0.555 | 2.11 | 2.6 | 6.72 | 2.53 | 1.41 |  |
| O[C@]12c3ccccc3C1CCCCC2N1CCOCC1 (some centres not stated) | > 100 | > 100 | > 100 | > 100 | > 100 | > 100 | > 100 | > 100 |  | > 100 | > 100 |  | > 100 | > 100 | > 100 | > 100 | > 100 | > 100 | > 100 |  |
| Nc1ncnc2c1N=C(c1ccccc1)CC(c1ccccc1)N2 (configuration not stated) | > 100 | > 100 | > 100 | > 100 |  | > 100 | > 100 | > 100 | > 100 |  | > 100 | > 100 | > 100 | > 100 | > 100 | > 100 | > 100 | > 100 | > 100 | > 100 |
| COc1ccc(/C=N/n2c(Cc3ccccc3)n[nH]c2=O)cc1 | > 100 | > 100 | > 100 | > 100 |  | > 100 | > 100 | > 100 | > 100 |  | > 100 | > 100 | > 100 | > 100 | > 100 | > 100 | > 100 | > 100 | > 100 | > 100 |
| Cn1c(=O)n2n(c1=O)C(S(=O)c1ccccc1)C2 (configuration not stated) | > 100 | > 100 | > 100 |  | > 100 | > 100 | > 100 | > 100 | > 100 |  | > 100 | > 100 | > 100 | > 100 | > 100 | > 100 | > 100 | > 100 | > 100 | > 100 |
| O=C(/C=C/c1ccc(Cl)cc1)c1ccc(Cl)s1 | > 100 | 93 | > 100 | > 100 |  | > 100 | > 100 | > 100 |  | > 100 |  | > 100 | > 100 | 83.7 | > 100 | > 100 | > 100 | > 100 | > 100 |  |
| O=C(NN1C(=O)C(Cl)C1c1c(O)ccc2ccccc12)c1ccccc1O (configuration not stated) | > 100 | > 100 | > 100 | > 100 | > 100 | > 100 | > 100 | > 100 |  | > 100 | > 100 | > 100 | > 100 | > 100 | > 100 | > 100 | > 100 |  | > 100 |  |
| O=C1NC2=NN=C(c3ccc(Br)cc3)CN2NC12c1ccccc1-c1ccccc12 | > 100 | > 100 | > 100 | > 100 | > 100 | > 100 | > 100 | > 100 | > 100 |  | > 100 | > 100 | > 100 |  | > 100 | > 100 | > 100 | > 100 | > 100 | > 100 |
| CSc1nc(C)cc(=O)n1C1OC(COC(C)=O)C(OC(C)=O)C(OC(C)=O)C1OC(C)=O (configuration not stated) | > 100 | > 100 | > 100 | > 100 | > 100 | > 100 | > 100 | > 100 |  | > 100 | > 100 | > 100 | > 100 | > 100 | > 100 | > 100 | > 100 |  | > 100 |  |
| CCCCOc1ccc(S(=O)(=O)/N=C(\N)Nc2ccc(Cl)cc2)cc1 | 26.5 | 27.1 | 33.3 | 28.5 | 47.8 | 27.7 | 35 | 38 |  |  | 31.6 | 31.8 | 35.2 |  | 29.3 | 27.1 | 28 | 44.2 | 32 |  |
| Nc1ncnc2c1ncn2CCOC(c1ccccc1)P(=O)(O)O (configuration not stated) |  | > 100 | > 100 | > 100 | > 100 | > 100 | > 100 |  | > 100 | > 100 | > 100 | > 100 | > 100 | > 100 | > 100 | > 100 | > 100 |  | > 100 |  |
| Nc1c(C(=O)c2ccccc2)nnc2ccccc12 | > 100 | 45 | > 100 | 79.1 | 32.7 | 65.4 |  | > 100 | > 100 |  | 38.3 |  | > 100 |  | > 100 | 90.8 | > 100 | > 100 | > 100 | 60.3 |
| COc1cccc(-c2[nH]c3cc4c(cc3c(=O)c2C(=O)O)OCO4)c1 | > 100 | > 100 | > 100 |  | > 100 | > 100 |  | > 100 | > 100 |  | > 100 | > 100 | > 100 | > 100 |  | > 100 | > 100 | > 100 | > 100 | > 100 |
| Cn1cnnc1SC(F)(F)c1nc2ccccc2o1 | > 100 | > 100 |  | > 100 | > 100 | > 100 | > 100 | > 100 | > 100 |  | > 100 | > 100 | > 100 | > 100 | > 100 | > 100 | > 100 | > 100 | > 100 | > 100 |
| N#C[C@H](C(=O)c1ccccc1F)c1nc2ccccc2[nH]1 | > 100 | > 100 | > 100 |  |  | > 100 | > 100 | > 100 | > 100 |  | > 100 | > 100 | > 100 | > 100 | > 100 | > 100 | > 100 | > 100 | > 100 | > 100 |
| CC(=O)Oc1ccc2cc(Oc3ccccc3)c(=O)oc2c1 | > 100 |  | > 100 | > 100 | > 100 | > 100 |  | > 100 | > 100 | > 100 |  | > 100 | > 100 |  | > 100 | > 100 | > 100 | > 100 | > 100 |  |
| CCN(CC)C(=S)S |  | 12.3 | > 100 | 60.4 | > 43.6 | > 100 | > 100 | > 59.8 |  | 33.3 | > 100 |  |  | 9.46 | > 100 | 65.1 |  | > 100 | > 84.6 |  |
| Cn1c(=O)c(C(=O)NC23CC4CC(CC(C4)C2)C3)c(O)c2ccccc21 |  | > 100 | 43.9 | 44.7 |  | 42.9 | 73.4 | > 100 |  | > 100 |  | 63 | 48.1 | > 100 | > 100 | > 100 | 59.7 | 43.6 | > 100 |  |
